According to patent US20070249582A1, “Method of Treating Substance Abuse with Quetiapine” (ASTRAZENECA AB, priority 2001, published 2007):

Tested on: outpatients with bipolar disorder and cocaine dependence
[1] = baseline to exit, all evaluable patients
[2] = baseline to week 12, LOCF, p<0.003

## OCCOCCN1CCN(C2=Nc3ccccc3Sc3ccccc32)CC1 [Quetiapine, 11-(4-[2-(2-hydroxyethoxy)ethyl]-1-piperazinyl)dibenzo[b,f][1.4]-thiazepine]
8 completers, baseline, past week
  Mean amount spent on drugs at baseline: 80.8±105.4 $
8 completers, week 12, past week
  Mean amount spent on drugs at exit: 10.0±17.7 $
8 subjects who completed all 12 weeks, p=0.043
  Reduction in amount spent on drugs: 87%
[1]
  Dollar amount spent on drugs: did not decrease significantly
  Percent of positive urine samples: did not decrease significantly
[2]
  Brief Psychiatric Rating Scale (BPRS) score: improved significantly
  Young Mania Rating Scale (YMRS) score: improved significantly
Baseline to week 12, LOCF, p<0.003, mean maximum dose 312.5±95.6 mg/day
  Hamilton Depression Scale (HDRS) score: improved significantly
Baseline to week 12, p<0.05
  Cravings as measured by the cocaine craving questionnaire (CCQ): significantly decreased
In vivo
  Tolerability: well tolerated
  Withdrawals because of side effects: no subjects withdrawing because of side effects
